Results reported in US6337402B2, “Asymmetrical bisbenzotriazoles substituted by a perfluoroalkyl moiety and compositions stabilized therewith” (Ciba Specialty Chemicals Corporation, priority 1999, dated 2002).

Assay: Bisbenzotriazole solubility in adhesive GELVA 263
Assay type: physicochemical
Details: in GELVA 263 polyacrylate adhesive; approximate maximum concentration with no sign of crystallization after solvent evaporation; weight added to GELVA 263 as is
Protocol: To measure the solubility of the instant bisbenzotriazole UV absorber in an adhesive composition, the compound is added to a typical adhesive GELVA® 263 (Solutia) which is a 44.5% solution of a polyacrylate in a mixture of ethyl acetate and hexane. The polyacrylate is a copolymer of methyl methacrylate, 2-ethylhexyl methacrylate and glycidyl methacrylate.
The test compound is dissolved in 5 mL of ethyl acetate, toluene or a mixture of ethyl acetate and toluene. To the solution is added 5 g of GELVA® 263. 2-3 mL of the resulting solution is place into individual watch glasses. Solubility is then evaluated based upon observed crystallization once the solvent has evaporated. Observations start after several hours and then continue over a period of several weeks.
Solubilities are reported in weight of total bisbenzotriazole added to GELVA® 263 as is.

Structure (SMILES) | Solubility without Crystallization (%)
CC(C)(C)c1cc(Cc2cc(C(C)(C)C)cc(-n3nc4ccc(S(=O)(=O)c5ccccc5)cc4n3)c2O)c(O)c(-n2nc3ccc(S(=O)(=O)c4ccccc4)cc3n2)c1 [A, 2,2′-Methylene-bis[6-(5-phenylsulfonyl-2H-benzotriazol-2-yl)-4-tert-butylphenol]] | 0.0%
CC(C)(c1ccccc1)c1cc(-n2nc3ccccc3n2)c(O)c(C(C)(C)c2ccccc2)c1 [B, 2-(2-hydroxy-3,5-di-α-cumylphenyl)-2H-benzotriazole] | 2.0%
CC(C)(C)c1cc(-n2nc3ccc(Cl)cc3n2)c(O)c(C(C)(C)C)c1 [C, 5-chloro-2-(2-hydroxy-3,5-di-tert-butylphenyl)-2H-benzotriazole] | 2.0%
CC(C)(C)CC(C)(C)c1cc(Cc2cc(C(C)(C)CC(C)(C)C)cc(-n3nc4ccc(C(F)(F)F)cc4n3)c2O)c(O)c(-n2nc3ccccc3n2)c1 [D, methylene-2-[4-tert-octyl-6-(2H-benzotriazol-2-yl)phenol]-2′-[4-tert-octyl-6-(5-trifluoromethyl-2H-benzotriazol-2-yl)phenol]] | 2.0%
CC(C)(C)CC(C)(C)c1cc(Cc2cc(C(C)(C)CC(C)(C)C)cc(-n3nc4ccc(C(F)(F)F)cc4n3)c2O)c(O)c(-n2nc3ccc(C(F)(F)F)cc3n2)c1 [E, 2,2′-methylene-bis[6-(5-trifluoromethyl-2H-benzotriazol-2-yl)-4-tert-octylphenol]] | 4.0%
CC(C)(C)CC(C)(C)c1cc(Cc2cc(C(C)(C)C)cc(-n3nc4ccc(Cl)cc4n3)c2O)c(O)c(-n2nc3ccc(C(F)(F)F)cc3n2)c1 [F, Methylene-2-[4-tert-butyl-6-(5-chloro-2H-benzotriazol-2-yl)phenol]-2 ′-[4-tert-octyl-6-(5-trifluoromethyl-2H-benzotriazol-2-yl)phenol]] | 11.0%
CC(C)(C)CC(C)(C)c1cc(Cc2cc(C(C)(C)C)cc(-n3nc4ccc(S(=O)(=O)c5ccccc5)cc4n3)c2O)c(O)c(-n2nc3ccc(C(F)(F)F)cc3n2)c1 [G, Methylene-2-[4-tert-butyl-6-(5-phenylsulfonyl-2H-benzotriazol-2-yl)phenol]-2′-[4-tert-octyl-6-(5-trifluoromethyl-2H-benzotriazol-2-yl)phenol]] | 22.0%
CC(C)(C)CC(C)(C)c1cc(Cc2cc(C(C)(C)C)cc(-n3nc4ccc(Sc5ccccc5)cc4n3)c2O)c(O)c(-n2nc3ccc(C(F)(F)F)cc3n2)c1 [H, Methylene-2-[4-tert-butyl-6-(5-phenylthio-2H-benzotriazol-2-yl)phenol]-2′-[4-tert-octyl-6-(5-trifluoromethyl-2H-benzotriazol-2-yl)phenol]] | 22.0%

Assay: not given
Details: not given

melting point | Structure (SMILES)
224 to 234 °C | CC(C)(C)c1cc(Cc2cc(C(C)(C)C)cc(-n3nc4ccc(S(=O)(=O)c5ccccc5)cc4n3)c2O)c(O)c(-n2nc3ccc(S(=O)(=O)c4ccccc4)cc3n2)c1 [A, 2,2′-Methylene-bis[6-(5-phenylsulfonyl-2H-benzotriazol-2-yl)-4-tert-butylphenol]]
